Measured values reported in PubChem BioAssay AID1553 (Sanford-Burnham Center for Chemical Genomics, 2009).
Several values for one entry are separate records, joined by “and”; a condition that tells them apart may be missing. Equal values may be shown once. Activity calls are given as the source filed them.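 The calls were made as follows: active = compounds graded as giving a low, moderate or strong rise in tritium labelling of cell protein versus solvent control; inactive = the rest.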

Tested on: HeLa cells, 3H-mannose incorporation into glycoproteins
Assay: increase in 3H-mannose incorporation into HeLa proteins, late-stage follow-up, orthogonal assay for PMI inhibitor project, HeLa cells (AID 1553);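 also: 1 fold = DMSO treated HeLa control cells; higher fold signals phosphomannose isomerase inhibition routing mannose into glycosylation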
[1] = fold increase, at 25 µM, stronger effect = higher value

Row | Structure (SMILES) | fold increase 3H incorporation (at 100 µM) | fold increase 3H incorporation [1]
1 | CCc1cc(CC)c(N=c2ssnc2Cl)c(CC)c1 | 0.2 | 0.3
2 | Clc1cccc(N=c2ssnc2Cl)c1 | 0.4 | 1.7
3 | Cc1c(Cl)cccc1-n1sc2cc([N+](=O)[O-])cc(OCC(F)(F)F)c2c1=O | 1.1 (inactive) | 1.4
4 | O=c1c2cc(F)ccc2sn1-c1ccccc1 | 1.6 | 2.3
5 | O=C(O)c1cccc(-n2sc3ccccc3c2=O)c1 | 0.5 (inactive) | 0.5
6 | CN(C)c1cccc(N=c2ssnc2Cl)c1 | 0.2 (inactive) | 0.3
7 | CN(C)c1cccc(-n2sc3ccccc3c2=O)c1 | 1.1 (inactive) | 1.3
8 | Cc1ccc(C=Nn2c(-c3ccncc3)n[nH]c2=S)cc1 | 1 (inactive) | –
9 | O=c1c2ccccc2sn1-c1ccc(Cl)c(S(=O)(=O)N2CCOCC2)c1 | 1.2 (inactive) | 1
10 | O=C(O)c1ccccc1NS(=O)(=O)c1cccc(-n2sc3ccccc3c2=O)c1 | 0 (inactive) | 0.2
11 | S=c1nc(-c2ccccc2Br)[nH][nH]1 | 0.9 (inactive) | –
12 | O=c1c2c([N+](=O)[O-])cc([N+](=O)[O-])cc2sn1-c1ccc(F)c(Cl)c1 | 0.7 (inactive) | 0.9
13 | S=c1nc(C2COc3ccccc3O2)[nH][nH]1 (configuration not stated) | 0.8 (inactive) | –
14 | O=c1c2ccccc2sn1-c1cccc(I)c1 | 0.7 | 3.4
15 | O=C(NCc1ccccc1)c1cccc(-n2sc3ccccc3c2=O)c1 | 1.2 (inactive) | 1.2
16 | Clc1ccc(N=c2ssnc2Cl)cc1Cl | 0.1 (inactive) | 0.1
17 | O=c1c2ccccc2sn1-c1ccc2ccccc2c1 | 1.9 | 1.6
18 | O=c1c2ccccc2sn1-c1cccc(Cl)c1 | 0.6 | 3.4
19 | Cc1ccc(C)c(N2Cc3ccccc3C2=O)c1 | 1.2 (inactive) | 1.1
20 | O=c1c2ccccc2sn1-c1ccc(F)cc1 | 2.5 | 2.5
21 | COC(=O)c1cccc(-n2sc3ccccc3c2=O)c1 | 1.7 | 1.5

Row | Structure (SMILES) | fold increase 3H incorporation (at 100 µM) | fold increase 3H incorporation [1]
22 | Cc1[nH]n(-c2ccccc2)c(=S)c1C=Nc1cccc([N+](=O)[O-])c1 | 0.7 (inactive) | –
23 | Cc1ccc(-n2sc3ccccc3c2=O)cc1 | 1 (inactive) and 0.6 (inactive) | 1.1 and 1.2
24 | Nc1ccccc1N=c1ssnc1Cl | 0.9 (inactive) | 0.9
25 | Cc1ccc(C)c(-n2sc3ccccc3c2=O)c1 | 1.5 | 1.4
26 | O=c1c2c([N+](=O)[O-])cc([N+](=O)[O-])cc2sn1-c1ccccc1F | 0.9 (inactive) | 0.9
27 | Clc1ccc(Nc2ccccc2N=c2ssnc2Cl)cc1 | 0.4 (inactive) | 0.3
28 | Cc1ccc(N=c2ssnc2Cl)cc1C | 0.8 (inactive) | 0.8
29 | COc1ccc(-c2nc(=S)[nH][nH]2)cc1OC | 0.8 (inactive) | –
30 | O=c1c2ccccc2sn1-c1ccccc1 | 1 | 1.1
31 | COc1ccc2c(=O)n(C3CCCC3)sc2c1 | 0 (inactive) | 0.9
32 | O=C1c2ccccc2SC1c1ccccc1 (configuration not stated) | 1.7 | 2.1
33 | Cc1cccc(-n2sc3ccccc3c2=O)c1 | 2.3 | 2
34 | N#Cc1ccc(N=c2ssnc2Cl)cc1 | 1.1 (inactive) | 1
35 | COc1cccc(-n2sc3ccccc3c2=O)c1 | 1.4 | 0.8
36 | O=c1c2ccccc2sn1-c1cc(S(=O)(=O)N2CCOCC2)ccc1N1CCOCC1 | 0.4 (inactive) | 0.8
37 | Cc1ccnc(-n2sc3ccccc3c2=O)n1 | 1 (inactive) | 0.9
38 | O=C(O)CCn1cc(C=C2C(=O)NC(=S)NC2=O)c(-c2cccc(Br)c2)n1 | 0.8 (inactive) | –
39 | Clc1nss/c1=N\c1nccs1 | 1 (inactive) | 1.1
40 | O=[N+]([O-])c1ccc(N=c2ssnc2Cl)c([N+](=O)[O-])c1 | 1.5 | –
41 | COc1ccc(N=c2ssnc2Cl)cc1OC | 0.1 (inactive) | 0.3
42 | COc1cc(N=c2ssnc2Cl)c(OC)cc1Cl | 1.9 | 1.2
